O=C(O)c1cccnc1
Conditions | solubility (mole fraction)
in DMSO, 293.56 K | 0.0597
in DMSO, 303.38 K | 0.074
in DMSO, 313.07 K | 0.0911
in DMSO, 322.84 K | 0.109
in DMSO, 332.36 K | 0.131
in acetone, 285.46 K | 0.000733
in acetone, 292.26 K | 0.00114
in acetone, 296.8 K | 0.00137
in acetone, 302.14 K | 0.00161
in acetone, 307.1 K | 0.00231
in acetone, 317.11 K | 0.00318
in acetonitrile, 283.3 K | 7.12e-05
in acetonitrile, 288.51 K | 0.00012
in acetonitrile, 293.01 K | 0.00017
in acetonitrile, 297.58 K | 0.000185
in acetonitrile, 302.63 K | 0.000268
in acetonitrile, 306.91 K | 0.000354
in acetonitrile, 312.49 K | 0.000475
in acetonitrile, 316.21 K | 0.000547
in acetonitrile, 322.45 K | 0.000715
in acetonitrile, 332.32 K | 0.00107
in diethyl ether, 283.45 K | 0.000322
in diethyl ether, 285.74 K | 0.000379
in diethyl ether, 290.57 K | 0.000539
in diethyl ether, 294.02 K | 0.000618
in diethyl ether, 298.66 K | 0.000813
in ethanol, 283.38 K | 0.00224
in ethanol, 293.46 K | 0.00309
in ethanol, 303.15 K | 0.00423
in ethanol, 312.83 K | 0.00605
in ethanol, 322.64 K | 0.00843
in ethanol, 332.43 K | 0.0115
in water, 283.59 K | 0.00172
in water, 293.41 K | 0.00218
in water, 303.03 K | 0.00281
in water, 312.49 K | 0.00475
in water, 312.97 K | 0.00365
in water, 316.21 K | 0.00547
in water, 322.45 K | 0.00715
in water, 322.83 K | 0.00465
in water, 332.01 K | 0.00586
in water, 332.32 K | 0.0107
